From patent EP0067666A1, “Salts of antimicrobial naphthyridine and quinoline compounds and their production” (priority 1981, dated 1982)
Values after ≈ are worked out from the molar mass of the structure shown. Where two headings read alike, the source gives them in different places. Marks after values point to notes of the source that are not given here.

Columns and labels:
Assay type in all cases: physicochemical
[1] = Solubility screening procedure (concentration and pH of filtrate); settings: for Conc. of CPD B: compound B + equimolar acid; for Conc. of CPD B / Conc. of CPD A: amino acid or base in deionized water, room temperature, filtrate, UV assay; for pH of Solution: pH of the filtrate; for Conc. of CPD A: compound A + equimolar acid
Method: (§1) The amount of Compound A or Compound B calculated for selected concentrations was weighed into volumetric flasks. Equimolar quantities of combining acid, amino acid, or base were added either as solutions or in dry form. Deionized water was added to bring the volume to that desired for the preselected concentrations.. All flasks were sonicated for 15 minutes, allowed to stand at room temperature for 30 minutes, then filtered through a fine frit sintered glass funnel. After the pH of the filtrate was taken, suitable dilutions were made into 0.1N HCl for ultraviolet spectrophotometric assay of concentration. Ten fold dilutions of the original filtrates were made into standard I.V. solutions.

[2] = Solubility of lyophilized and crystalline solids; settings: for solubility / Conc. of CPD A mg/ml Lyo.: not necessarily maximum value
[3] = 10x dilution of soluble forms with standard IV solutions (pH, precipitate); settings: for Solution 1 ppt 4 hr / Solution 3 ppt 4 hr / Solution 2 ppt 4 hr / Solution 4 ppt 4 hr: precipitate at 4 hr; for Solution 1 ppt 24 hr / Solution 3 ppt 24 hr / Solution 2 ppt 24 hr / Solution 4 ppt 24 hr: precipitate at 24 hr; for Concen. of Cpd A: undiluted solution used for the 10x dilutions
Method: as §1

[4] = concentrated Cpd B solution (154-221 mg/ml) diluted 10x with 5% Dextrose
[5] = concentrated Cpd B solution (154-221 mg/ml) diluted 10x with 5% Dextrose + 0.9% NaCl
[6] = concentrated Cpd B solution (154-221 mg/ml) diluted 10x with Lactated Ringer's Solution
[7] = concentrated Cpd B solution (155-221 mg/ml) diluted 10x with 0.9% NaCl
[8] = concentrated Cpd B solution diluted 10x with 5% Dextrose + 0.9% NaCl
[9] = concentrated Cpd B solution diluted 10x with 5% Dextrose
[10] = concentrated Cpd B solution diluted 10x with Lactated Ringer's Solution
[11] = low-concentration Cpd B solution (26.2-52 mg/ml) diluted 10x with 0.9% NaCl
[12] = undiluted concentrated Cpd B solution used for the Solution 1 dilution
[13] = undiluted concentrated solution (at least 155 mg/ml) used for the Solution 1 dilution (for most salts for all four solutions)
[14] = undiluted low-concentration Cpd B solution (26.2-52 mg/ml)
[15] = undiluted low-concentration solution (26.2-52 mg/ml), diluted with Solution 1 only
[16] = Cpd A salt solution diluted 10x with 0.9% NaCl
[17] = Cpd A salt solution diluted 10x with 5% Dextrose
[18] = Cpd A salt solution diluted 10x with 5% Dextrose + 0.9% NaCl
[19] = Cpd A salt solution diluted 10x with Lactated Ringer's Solution

Compound	Conc. of CPD B [1]	pH of Solution ([1]; CPD B solutions)	Solution 2 pH dil [3, 4]	Solution 3 pH dil [3, 5]	Solution 4 pH dil [3, 6]	Solution 1 pH dil [3, 7]	Solution 1 ppt 4 hr [3, 7]	Solution 1 ppt 24 hr [3, 7]	Solution 3 ppt 4 hr [3, 8]	Solution 3 ppt 24 hr [3, 8]	Solution 1 pH dil [3, 16]	Solution 1 ppt 24 hr [3, 16]	Solution 2 pH dil [3, 17]	Solution 3 pH dil [3, 18]	Solution 3 ppt 24 hr [3, 18]	Solution 2 ppt 24 hr [3, 17]	Solution 4 pH dil [3, 19]	Solution 4 ppt 24 hr [3, 19]	pH of Solut. ([3]; undiluted Cpd A solution)	Concen. of Cpd A [3]	further results
CCn1cc(C(=O)O)c(=O)c2cc(F)c(N3CCNCC3)nc21 [B Methane Sulphonic]	211 mg/mL	1.67^c	3.2	2.8	4.2	2.3	yes	yes	yes	yes											pH of Solution Cryst. ([2]; CPD B salt, crystalline solid): 3.15; pH of Solution Lyo. ([2]; CPD B salt, lyophilized solid): 1.8; solubility ([2]; lyophilized solid, read-out: Conc. of CPD B mg/ml Lyo.): 200 mg/mL (≈ 624 mM); Solution 2 ppt 4 hr [3, 9]: hazy; Solution 2 ppt 24 hr [3, 9]: hazy; Solution 4 ppt 4 hr [3, 10]: yes; Solution 4 ppt 24 hr [3, 10]: yes; Solution 1 pH dil [3, 11]: 4.47; Solution 1 ppt 24 hr [3, 11]: no; pH of Solut. [3, 12]: 1.38; Concen. of Cpd B [3, 13]: 178 mg/mL; pH of Solut. [3, 14]: 5.07; Concen. of Cpd B [3, 15]: 26.2 mg/mL
CCn1cc(C(=O)O)c(=O)c2cc(F)c(N3CCNCC3)nc21 [B Hydrochloric]	7 mg/mL	1.83^c																			pH of Solution Cryst. ([2]; CPD B salt, crystalline solid): 3
CCn1cc(C(=O)O)c(=O)c2cc(F)c(N3CCNCC3)cc21 [A L-Aspartic]											5.05	no	4.83	4.84	no	slight	5.02	no	4.88	174 mg/mL	Conc. of CPD A [1]: 174 mg/mL; pH of Solution ([1]; CPD A solutions): 4.88; pH of Solution Cryst. ([2]; CPD A salt, crystalline solid): 4.8; pH of Solution Lyo. ([2]; CPD A salt, lyophilized solid): 4.5; Conc. of CPD A mg/ml Lyo. ([2]; lyophilized solid): 256 mg/mL
CCn1cc(C(=O)O)c(=O)c2cc(F)c(N3CCNCC3)cc21 [A D-Galacturonic]											5.36	no	5.18	5.20	no	slight	5.36	no	5.44	166 mg/mL	pH of Solution Cryst. ([2]; CPD A salt, crystalline solid): 4.9; pH of Solution Lyo. ([2]; CPD A salt, lyophilized solid): 4.0; solubility ([2]; crystalline solid, read-out: Conc. of CPD A mg/ml Cryst.): 183 mg/mL (≈ 573 mM); Conc. of CPD A mg/ml Lyo. ([2]; lyophilized solid): 256 mg/mL
CCn1cc(C(=O)O)c(=O)c2cc(F)c(N3CCNCC3)nc21 [B L-Cysteic]	221 mg/mL	2.78	2.9	2.8	3.9	2.8	yes	yes	yes	yes											Solution 2 ppt 4 hr [3, 9]: hazy; Solution 2 ppt 24 hr [3, 9]: hazy; Solution 4 ppt 4 hr [3, 10]: yes; Solution 4 ppt 24 hr [3, 10]: yes; Solution 1 pH dil [3, 11]: 3.29; Solution 1 ppt 24 hr [3, 11]: no; pH of Solut. [3, 12]: 2.78; Concen. of Cpd B [3, 13]: 221 mg/mL; pH of Solut. [3, 14]: 2.96; Concen. of Cpd B [3, 15]: 52 mg/mL
CCn1cc(C(=O)O)c(=O)c2cc(F)c(N3CCNCC3)cc21 [A Hydrochloric]											2.7	no	2.8	2.7	no	no	4.6	no	1.52	201 mg/mL	Conc. of CPD A [1]: 201 mg/mL; pH of Solution ([1]; CPD A solutions): 1.52^a
CCn1cc(C(=O)O)c(=O)c2cc(F)c(N3CCNCC3)nc21 [B Lactic]	217 mg/mL	4.24^b	4.2	4.1	4.3	4.1	yes	yes	yes	yes											Solution 2 ppt 4 hr [3, 9]: hazy; Solution 2 ppt 24 hr [3, 9]: hazy; Solution 4 ppt 4 hr [3, 10]: yes; Solution 4 ppt 24 hr [3, 10]: yes; pH of Solut. [3, 12]: 4.04; Concen. of Cpd B [3, 13]: 221 mg/mL
CCn1cc(C(=O)O)c(=O)c2cc(F)c(N3CCNCC3)nc21 [B D-Gluconic]			4.5	4.8	4.6	4.6	no	yes	no	yes											pH of Solution Cryst. ([2]; CPD B salt, crystalline solid): 4.78; pH of Solution Lyo. ([2]; CPD B salt, lyophilized solid): 4.8; Solution 2 ppt 24 hr [3, 9]: no; Solution 4 ppt 24 hr [3, 10]: no; pH of Solut. [3, 12]: 4.6; Concen. of Cpd B [3, 13]: 168 mg/mL
CCn1cc(C(=O)O)c(=O)c2cc(F)c(N3CCNCC3)cc21 [A D-Gluconic]											4.4	no	4.3	4.4	no	no	4.7	no	4.30	182 mg/mL	pH of Solution Cryst. ([2]; CPD A salt, crystalline solid): 4.83; pH of Solution Lyo. ([2]; CPD A salt, lyophilized solid): 5.1; Conc. of CPD A mg/ml Lyo. ([2]; lyophilized solid): 255 mg/mL
CCn1cc(C(=O)O)c(=O)c2cc(F)c(N3CCNCC3)cc21 [A Methane Sulphonic]											5.4	no	2.7	2.5	no	no	4.5	no	1.5	173 mg/mL	Conc. of CPD A [1]: 175 mg/mL; pH of Solution ([1]; CPD A solutions): 1.33
